# Test system: adipocytes
# Experiment: Lypolysis Assay Kit (dual glycerol and free fatty acids detection), adipocyte lipolytic activity
# Type: cell-based
# Conditions: forskolin 25, 2.5, 0.25 micromolar; conjugated linoleic acid 10, 1, 0.1 micromolar; 5 hours at 37° C.; optical density at 540 nanometers
# Experimental: Suitable lipolytic agents may be identified by conducting a simple test using a lipolysis assay kit purchased from Zen-Bio. One suitable kit is the Lypolysis Assay Kit (dual glycerol and free fatty acids detection, reagents+cells) purchased from Zen-Bio (www.zen-bio.com) under catalog no. LIP-3.
# The adipocyte lipolytic activity of ingredients was tested using Lypolysis Assay Kit (dual glycerol and free fatty acids detection, reagents+cells) purchased from Zen-Bio (www.zen-bio.com) under catalog no. LIP-3. Serial dilutions of forskolin and conjugated linoleic acid were prepared in Krebs-Ringer Buffer containing 1% by weight free fatty acid bovine serum albumin. Culture medium was removed from the plate wells and the cells were washed with phosphate buffered saline. The forskolin test material was added to the test wells to provide wells having a total concentration of 25, 2.5, and 0.25 micromolar. The conjugated linoleic acid test material was added to the test wells to provide concentrations of 10, 1, and 0.1 micromolar. The plate was incubated for 5 hours at 37° C. Fifty microliters of test material was removed from each plate and transferred to clean wells. Triglyceride breakdown was tested by measuring for the presence of glycerol or NEFA (non-esterified fatty acids). […] The optical density of each well of the glycerol and NEFA plate wells was measured at 540 nanometers.
substance,measurement,value
conjugated linoleic acid,"adipocyte lipolytic activity (triglyceride breakdown, glycerol or NEFA)",effective in increasing lipolysis of adipocytes
